From patent US3931217A, “2,3-Dihydro-5-alkoxy-5-phenyl-5H-imidazo[2,1-a]isoindoles” (Hoffmann-La Roche Inc., priority 1974, dated 1976)

Assays:
[1] = test system: mice; assay: direct-acting stimulant / psychostimulant effect in animals such as mice; type: in vivo; settings: similarly tested; result in words
Experimental: As has been indicated hereinabove the novel end products of this invention, i.e., the compounds of the formula I and their pharmaceutically acceptable acid addition salts and the compounds of formula II-d and their pharmaceutically acceptable acid addition salts, are useful as psychostimulants. When administered, for example, orally, to animals such as mice they produce a direct-acting stimulant effect of long duration in single doses in amounts ranging from 0.03 mg/kg to 50 mg/kg. […] Exp. Path. and Pharm., Vol. 140, page 237). The compounds of this invention have psychostimulant effects qualitatively similar in many respects to those of imipramine and amphetamine which are well known for their therapeutic uses and properties.

[2] = acute toxicity (LD50) in mice; settings: mouse, in vivo
[3] = test system: dogs; assay: blood pressure in dogs; type: in vivo; settings: 4 mg/kg i.v.
Experimental: (§1) In addition to their use as psychostimulants, the compounds of formulas I and II-d are also useful as analgesic agents. […] For example, 2-(2-benzoylphenyl)-2-imidazoline in dogs at 4 mg/kg i.v. produced an increase in blood pressure of 10 mm. Hg after 2 minutes followed by gradual increase to 25 mm. Hg.

[4] = test system: animals; assay: analgesic properties in standard pharmacological tests in animals; type: in vivo; settings: result in words
Experimental: as §1

[5] = LD50 of Example 21; settings: in vivo, iv; species not given

**Q.** For `COC1(c2ccccc2)c2ccccc2C2=NCCN21` (centres unmarked) [2,3-dihydro-5-methoxy-5-phenyl-5H-imidazo[2,1-a]isoindole], which “test result compared with 2-(2-benzoylphenyl)-2-imidazoline” value [1] is on record?
**A.** qualitatively similar to 2-(2-benzoylphenyl)-2-imidazoline

**Q.** Which LD50 ([2]; ip) does the source give for `O=C(c1ccccc1)c1ccccc1C1=NCCN1` [Example 10, 2-(2-benzoylphenyl)-2-imidazoline] here?
**A.** 77 mg/kg

**Q.** And the LD50 ([2]; iv)?
**A.** 37 mg/kg

**Q.** And the LD50 ([2]; po)?
**A.** 200 mg/kg

**Q.** And the LD50 ([2]; sc)?
**A.** 130 mg/kg

**Q.** What about the “increase in blood pressure” value ([3]; after 2 minutes) of the same compound?
**A.** 10 mm. Hg

**Q.** What about the “gradual increase in blood pressure” value ([3]; following the 2-minute value) of the same compound?
**A.** 25 mm. Hg

**Q.** What about the “analgesic properties compared with phenylbutazone” value [4] of the same compound?
**A.** can be likened to the analgesic properties of phenylbutazone

**Q.** With `O=C(c1ccc(Cl)cc1)c1ccccc1C1=NCCN1` [Example 15, 2-[2'-(4-chlorobenzoyl)phenyl]-2-imidazoline] as the compound, how does the “test result compared with 2-(2-benzoylphenyl)-2-imidazoline” value [1] read?
**A.** qualitatively similar to 2-(2-benzoylphenyl)-2-imidazoline

**Q.** Which “test result compared with 2-(2-benzoylphenyl)-2-imidazoline” value [1] does the source give for `COc1ccc(C(=O)c2ccccc2C2=NCCN2)cc1` [Example 16, 2-[2'-(4-anisoyl)phenyl]-2-imidazoline] here?
**A.** qualitatively similar to 2-(2-benzoylphenyl)-2-imidazoline

**Q.** With `OC1(c2ccccc2)c2ccccc2C2=NCCCCN21` (centres unmarked) [Example 21, 2,3,4,5-tetrahydro-7-hydroxy-7-phenyl-7H-diazepino[2,1-a]isoindole] as the compound, how does the LD50 [5] read?
**A.** 40 mg/kg
